Reference: US20020002269A1, “ARTEMIN, A NEUROTROPHIC FACTOR” (priority 1998, published 2002)

B1: GDNF: recombinant human mature GDNF obtained from Genentech (protein, UniProt P39905 78-211, looked up)
Glial cell line-derived …: SPDKQMAVLPRRERNRQAAAANPENSRGKGRRGQRGKNRGCVLTAIHLNVTDLGLGYETKEELIFRYCSGSCDAAETTYDKILKNLSRNRRLVSDKVGQACCRPIAFDDDLSFLDDNLVYHILRKHSAKRCGCI

Assays:
[1] = tested on: NBL-S neuroblastoma cell line; assay: BrdU cell proliferation assay in NBL-S neuroblastoma cells; assay type: cell-based; conditions: 50 ng/mL, 30 hrs after factor addition, FIG. 8D
Procedure: In another experiment, the ability of artemin to induce proliferation of the NBL-S neuroblastoma cell line was examined. NBL-S cells were plated at 5×10^4 cells/well on 48-well plates in standard medium, either without treatment or in the presence of 50 ng/mL of GDNF, artemin, or persephin. Actively dividing cells undergoing DNA synthesis 30 hrs after factor addition were detected using the BrdU (colorimetric) cell proliferation assay kit according to the manufacturer's instructions (Boehringer-Mannheim) and the data are shown in FIG. 8D.

[2] = tested on: CHP126 neuroblastoma cell line; assay: Responsiveness of a neuroblastoma cell line that does not express RET (CHP126); assay type: cell-based; conditions: data not shown
[3] = tested on: nodose ganglion (NG) neurons; assay: Survival of cultured nodose ganglion neurons; assay type: cell-based, rat; conditions: FIG. 7D; for survival of NG neurons: 50 ng/ml, 3 days in culture; for survival promotion of NG neurons compared with BDNF: GDNF family ligands 50 ng/ml, BDNF 100 ng/ml
Procedure: (§1) Each GDNF ligand family member consisted of the human mature amino acid sequence and was produced by standard recombinant DNA methods. Recombinant GDNF, neurturin and persephin were obtained from Genentech while recombinant artemin was produced as described in Example 3.
(§2) The cultures were performed using standard methods described elsewhere (Kotzbauer et al., Neuron 12:763-773, 1994; Kotzbauer et al., Nature 384:467-470, 1996; Milbrandt et al., Neuron 20:245-253, 1998). In brief, for SCG neurons, after dissection and dissociation, neurons were plated on collagen-coated 24-well tissue culture plates and maintained in NGF-containing medium (AM50) for 5 days, after which they were either kept in AM50 or switched to medium containing neutralizing anti-NGF antibodies plus GDNF, neurturin, persephin, artemin, (50 ng/ml where not noted otherwise), or no growth factors. Cultures were maintained for 3 days, after which they were fixed in 4% paraformaldehyde and stained with toluidine blue, and surviving neurons were counted. For nodose ganglion and dorsal root ganglion neuron cultures, dissociated neurons were plated directly into NGF (for dorsal root ganglia), or BDNF (for nodose ganglia, 100 ng/ml) or one of the GDNF ligands in serum-containing medium (AM50 with anti-NGF antibodies), and cells surviving after 3 days in culture were counted as above. Trigeminal ganglia were dissected, dissociated, and plated directly into medium containing NGF or the indicated GDNF ligands, and the number of surviving cells was assessed after 3 days in vitro. For all culture systems, 2-3 independent experiments were performed.

[4] = tested on: dorsal root ganglion (DRG) neurons; assay: Survival of cultured dorsal root ganglion neurons; assay type: cell-based, rat
Procedure: as §1, §2

RET = biological target: T1, RET (Rattus norvegicus, UniProt G3V9H8); assay: Western blot of RET phosphorylation and MAP kinase activation in SCG neurons; assay type: cell-based; conditions: 50 ng/ml for 20 minutes, FIG. 9A
T1 construct: endogenous in cells
Procedure: In brief, SCG neurons were dissected from postnatal day 1 (P1) rats and maintained in NGF-containing medium for 5 days, after which they were deprived of NGF by switching to NGF-free medium in the presence of anti-NGF antibodies. After 2 hours without NGF, neurons were switched to medium containing NGF, GDNF or artemin at 50 ng/ml for 20 minutes. Cells were washed in cold PBS, and collected in immunoprecipitation buffer (1 mM EDTA/1 mM EGTA/0.2 mM NaVO3/1 mM Pefabloc/1 uM pepstatin A/10 ug/ml leupeptin/2 ug/ml aprotinin/1% Triton X-100/0.5% Nonidet P-40/150 mM NaCl in 10 mM Tris, pH 7.4). The lysates were incubated with 30 μl agarose-conjugated anti-phosphotyrosine antibodies (Calbiochem) at 4° C. for 1 hr. Beads were then washed three times with immunoprecipitation buffer, resuspended in SDS sample buffer, and boiled for 5 min. Samples were separated using SDS-PAGE, and transferred to nitrocellulose membranes. Membranes were blocked for 1 hr at 25° C. in TBS containing 5% dry milk, incubated overnight 4° C. with a 1:300 dilution of anti-Ret antibody (C-19; Santa Cruz), then washed (3× in TBS containing 0.1% Tween-20) and incubated in a 1:10,000 dilution of anti-rabbit antibodies conjugated to HRP (Jackson Immunoresearch). Membranes were washed 3×, incubated with SuperSignal ULTRA (Pierce) for 5 minutes, then exposed to film. For MAP kinase (MAPK) assays, a portion of the total lysate wars removed before immunoprecipitation, separated by SDS-PAGE, and immunoblotted using an anti-phospho-MAP-kinase antibody (New England Biolabs).

[5] = 50 ng/ml, 3 days in culture, FIG. 7A

T1 sequence (G3V9H8 24-1115): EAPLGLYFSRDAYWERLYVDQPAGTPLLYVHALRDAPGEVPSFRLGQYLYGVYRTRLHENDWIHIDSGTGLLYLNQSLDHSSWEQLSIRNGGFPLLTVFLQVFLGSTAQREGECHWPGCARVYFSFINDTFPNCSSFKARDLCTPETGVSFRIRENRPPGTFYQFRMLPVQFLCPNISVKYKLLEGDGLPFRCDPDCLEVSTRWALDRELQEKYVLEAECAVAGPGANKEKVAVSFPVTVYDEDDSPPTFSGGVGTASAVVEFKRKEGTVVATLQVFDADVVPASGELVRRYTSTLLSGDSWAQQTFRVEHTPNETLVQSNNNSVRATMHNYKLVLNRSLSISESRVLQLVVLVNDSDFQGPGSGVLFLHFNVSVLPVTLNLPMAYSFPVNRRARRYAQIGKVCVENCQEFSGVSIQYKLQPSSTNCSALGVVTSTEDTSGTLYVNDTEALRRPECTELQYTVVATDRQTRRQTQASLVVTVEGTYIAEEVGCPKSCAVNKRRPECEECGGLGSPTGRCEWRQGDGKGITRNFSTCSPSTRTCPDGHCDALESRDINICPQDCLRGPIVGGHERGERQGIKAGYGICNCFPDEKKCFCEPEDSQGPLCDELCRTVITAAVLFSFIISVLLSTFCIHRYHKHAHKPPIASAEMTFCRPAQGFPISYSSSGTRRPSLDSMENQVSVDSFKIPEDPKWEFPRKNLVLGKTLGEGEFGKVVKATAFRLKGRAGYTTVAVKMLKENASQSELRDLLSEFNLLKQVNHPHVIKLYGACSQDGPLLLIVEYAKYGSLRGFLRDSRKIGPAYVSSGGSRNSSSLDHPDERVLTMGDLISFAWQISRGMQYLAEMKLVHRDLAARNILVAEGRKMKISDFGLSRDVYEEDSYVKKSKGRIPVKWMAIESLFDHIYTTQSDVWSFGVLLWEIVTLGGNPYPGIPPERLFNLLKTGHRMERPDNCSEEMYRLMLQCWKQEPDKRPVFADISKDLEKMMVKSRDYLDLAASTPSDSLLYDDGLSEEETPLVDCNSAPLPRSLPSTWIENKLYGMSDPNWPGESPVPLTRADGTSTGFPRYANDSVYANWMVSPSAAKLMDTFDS

Row | Molecule | proliferation of NBL-S cells (BrdU incorporation) [1] | response of CHP126 cells [2] | survival of NG neurons [3] | survival promotion of NG neurons compared with BDNF [3] | survival of DRG sensory neurons [4, 5] | number of DRG neurons supported compared with GDNF or neurturin ([4]; 50 ng/ml, FIG. 7A) | EC50 of survival promoting effect on DRG neurons ([4]; dose response, P1 rat DRG neurons, 3 days in culture, FIG. 7B) | EC50 ([4]; dose response, P1 rat DRG neurons, molar figure, FIG. 7B, read-out: EC50 of survival promoting effect on DRG neurons) | downstream signaling (activation of the MAP kinase pathway) in SCG neurons (RET) | tyrosine-phosphorylation of RET in SCG neurons (RET)
1 | artemin: recombinant mature human artemin (FIG. 3A, SEQ ID NO:3) with 8-histidine tag, produced in E. coli; GDNF family neurotrophic factor | stimulated proliferation of NBL-S cells | did not respond | supported similar numbers of NG neurons | equal or greater survival promotion than BDNF | supported the survival of a subset of sensory neurons | supported a larger number of neurons than GDNF or neurturin | 1 to 3 ng/mL | ~0.1 nM | effective in eliciting downstream signaling | induced tyrosine-phosphorylation of RET
2 | B1 | stimulated proliferation of NBL-S cells | did not respond | supported similar numbers of NG neurons | equal or greater survival promotion than BDNF | supported the survival of a subset of sensory neurons |  |  |  |  | induced tyrosine-phosphorylation of RET
